Source: patent publication US12194082B2, “Compositions and methods for treatment of homocystinuria” (THE REGENTS OF THE UNIVERSITY OF COLORADO, priority 2016, dated 2025)
Several values for one entry are separate records, joined by “and”; a condition that tells them apart may be missing. Equal values may be shown once.

Legend:
[1] = CBS enzyme activity assay, specific activity of pure enzyme; format: biochemical; settings: lots used in osmotic pumps
Experimental: (§1) CBS activity was determined by a radioisotope assay with C^14-labeled serine as a substrate. Ten μl (total 490 ng) of pure htCBS in dilution buffer (0.1 M Tris-HCl pH=8.6, 1 mM DTT, 10 μM PLP, 0.5 mg/ml BSA) or 10 μl of plasma were added to 85 μl of reaction mixture containing 0.1 M Tris-HCl pH=8.6, 10 mM L-serine, 0.5 mM PLP, 0.5 mg/ml BSA and 0.3 μCi (for pure enzyme) or 0.45 μCi (for plasma) of L-[C^14(U)]-Serine. Samples were incubated for 5 min at 37° C. and reaction was initiated by addition of 5 μl of 0.2 M Hcy (10 mM final concentration). Following 30 min of incubation at 37° C., a 20 μl aliquot of the assay mixture was applied onto a grade 3 CHR Whatman (NJ, USA) paper. Assay initiation and sampling of the resulting mixture were staggered so that each reaction time was 30 minutes. Descending paper chromatography was used to isolate the radioactive product (Cth) from a labeled substrate (Ser). The C^14-cystathionine formed in the reaction was separated from C^14-serine by an overnight descending paper chromatography in 2-propanol/formic acid/H2O (75:5.7:18.9 v/v). Radioactivity in the area of the marker cystathionine (detected by staining the marker lane with ninhydrin) was determined by cutting the chromatogram into strips that were submerged in 5 ml of Opti-fluor scintillation cocktail (PerkinElmer, MA, USA) and counted in a Beckman LS-3801 scintillation counter. An enzyme-free sample was used as a blank to monitor the background radioactivity that was then subtracted from each sample. For pure enzyme, specific activity values are expressed as enzyme units (the amount of enzyme that produces 1 μmol of cystathionine/hour) per mg of CBS, and for plasma samples as units per μl plasma.

Hcy, Cys, Cth, and Met = test: Metabolite levels in plasma and tissues of KO mice at 18-19 days of age; format: in vivo
Experimental: Plasma metabolites homocysteine, cystathionine and cysteine were determined by stable-isotope-dilution liquid chromatography mass spectrometry as previously described in (Allen et al., 1993, Metabolism, 42: 1448-1460). Measurements of total non-protein bound homocysteine and other aminothiols as well as of amino acids in tissue were performed as described in (Maclean et al., 2010b. Mol. Genet. Metab. 101, 153-162). Metabolites were determined by stable-isotope-dilution liquid chromatography mass spectrometry.
Plasma and tissue metabolites were measured in the groups of wild-type mice (control), untreated homozygous −/− affected KO mice, and 400MA PEG-htCBS C15S-treated KO mice. The treated group was administered subcutaneous injections of 400MA PEG-htCBS C15S 3 times per week at a dose of 7.5 mg/kg from the age of 2 days. Plasma and tissues were harvested 24 hours after the last injection.

I278T mice = test: DEXA bone mineralization and body composition in I278T mice; format: in vivo, mouse; settings: 7.5 mg/kg SC 3x/week from 6 to 13 months of age
Experimental: A PIXImusII DEXA scanner (GE Lunar Medical Systems) specifically designed for scanning small animals such as mice was used for DEXA analysis. This machine enabled quick and efficient determination of the body composition (lean, fat mass, and bone density) of a mouse before terminal tissue extraction procedures. Mice were fasted for 4 hours prior to the DEXA measurement to remove food from the gastro-intestinal tract. Mice were then anesthetized using IP bolus injection of 60 mg/kg ketamine and 15 mg/kg xylazine and placed on a tray in the DEXA machine. After the measurement was done (3˜5 minutes), the mice were removed from the DEXA machine and used in terminal procedures, such as tissue extractions.
The bone mineral density (BMD) and bone mineral content (BMC) were analyzed by DEXA for three groups of I278T mice: +/− healthy heterozygous controls (n=10M+11F), −/− affected homozygous I278T controls (n=6M+8F), and 20NHS PEG-htCBS C15S-treated I278T mice (n=6M+6F). The 20NHS PEG-htCBS C15S (C15S/ME-200GS)-treated I278T mice were administered 7.5 mg/kg subcutaneously (SC) 3 times per week from the age of 6 months up to the age of 13 months. FIG. 17A, FIG. 17B, FIG. 17C, FIG. 17D, and FIG. 17E are graphs comparing BMD (g/cm^2), BMC (g), total mass (g), lean mass (g), and fat content (%), respectively, among the three groups of mice. […]

Hcy, Cth, Cys = test: Plasma metabolites in I278T mice of the eye study; format: in vivo; settings: 7.5 mg/kg SC 3x/week
Experimental: The changes in metabolite levels in plasma were measured in I278T (+/−) healthy heterozygous control mice, untreated −/− affected homozygous control mice, and 20NHS PEG-htCBS C15S-treated −/− homozygous I278T mice. The 20NHS PEG-htCBS C15S (C15S/ME-200GS)-treated mice were administered 7.5 mg/kg subcutaneously (SC) 3 times per week from the age of 2 days up to the age of 4 months. Levels measured beginning at 72 hours after the injection as mice were on the treatment from 2 days of age.

Hcy, Cth, Cys, Met = test: Diet study (regular vs Met-restricted diet) in I278T mice: plasma metabolites; format: in vivo
Experimental: A diet study was performed in I278T mice and analyze them. Plasma metabolites of 10 weeks old mice: +/− I278T (control), −/− I278T (negative control), and −/− treated with 20NHS PEG-[…] (OT-58) mice. Each group was further divided into subgroups: one on a regular diet (8.2 g/kg Met TD.01084 diet+zinc water) (REG) and one on a methionine-restricted diet (0.5 g/kg Met TD.110591 diet+betaine water) (MRD). Treatment was begun at W5 of age.

[2] = rat, in vivo, sc
Experimental: as §1
(§2) The pharmacokinetic (PK) parameters were calculated using a non-compartmental curve stripping model which resolves a curve into a series of exponential terms corresponding to the absorption, distribution and elimination phases occurring during the time course of the enzyme in the blood. The curve stripping approach assumes that the disposition phases of the drug follow apparent first-order kinetics, which is evidenced by the linearity in the terminal portion of a semi-log plot. These calculations were made using a modeling program called PK Solutions 2.0 (Summit Solutions, Montrose, CO) using the mean plasma enzyme activity for each route of administration. The bioavailability was calculated by dividing the area under the curve (AUC) for the SC or IP route by the AUC observed after IV administration.
In order to assess the pharmacokinetics of 20NHS PEG-htCBS C15S in rats, wild-type Sprague Dawley rats were injected with a single dose of 20NHS PEG-htCBS C15S through intra-vascular (IV) or sub-cutaneous (SC) routes. The design of a third (repeated dose) PK study (groups 7-9) was adjusted to allow extraction of data after the first dose and thus their combination with a single dose PK study (groups 1-6).
To further evaluate rats as a species for conducting long-term toxicity studies, the pharmacokinetics of 20NHS PEG-htCBS C15S was determined in three groups of Sprague Dawley rats receiving a total of 9 SC injections every 48 hours of either 4 mg/kg (low), 8 mg/kg (mid), or 24 mg/kg (high) 20NHS PEG-htCBS C15S. […] The experiment was conducted for a length of 24 days.

[3] = Pharmacokinetics of 20NHS PEG-htCBS C15S in monkeys
Experimental: as §2
For the single dose PK study, three experimental groups of 4 (n=2M+2F) monkeys each were used to conduct the experiments. The first group received 2 mg/kg 20NHS PEG-htCBS C15S via IV injection. Blood was collected at 0, 0.083, 0.16, 0.25, 0.5, 1, 2, 4, 8, 24, 72, 120, and 192 hours post IV injection. The second and third groups received either 2 mg/kg or 6 mg/kg 20NHS PEG-htCBS C15S via SC injection. Blood was collected at 0, 1, 2, 4, 8, 24, 48, 72, 96, 120, 192, 240, and 336 hours post SC injection.

[4] = 7.5 mg/kg SC 3x/week from day 2, 24 hours after last injection, mean ± SEM
[5] = 7.5 mg/kg SC 3x/week from day 2, mean ± SEM

Substance: 20NHS PEG-htCBS C15S: htCBS C15S PEGylated with ME-200GS PEG (20 kDa linear NHS ester-activated PEG)
- specific activity of administered enzyme [1]: 673.9 ± 13.2 U/mg
- specific activity of administered enzyme ([1]; listed as ME-200GS PEGylated htCBS C15S): 623.2 ± 16.4 U/mg
- Cystathionine in plasma (Hcy, Cys, Cth, and Met; [4]): 133.2 ± 9.1 µM
- Cysteine in plasma (Hcy, Cys, Cth, and Met; [4]): 211.7 ± 11.5 µM
- Homocysteine in plasma (Hcy, Cys, Cth, and Met; [4]): 52.8 ± 6.8 µM
- Methionine in plasma (Hcy, Cys, Cth, and Met; [4]): 99.2 ± 5.4 µM
- Cystathionine in brain tissue (Hcy, Cys, Cth, and Met; [5]): 8.5 ± 1.1 nmols/g
- Cystathionine in kidney tissue (Hcy, Cys, Cth, and Met; [5]): 256.0 ± 77.5 nmols/g
- Cystathionine in liver tissue (Hcy, Cys, Cth, and Met; [5]): 18.9 ± 1.8 nmols/g
- Cysteine in brain tissue (Hcy, Cys, Cth, and Met; [5]): 56.8 ± 3.0 nmols/g
- Cysteine in kidney tissue (Hcy, Cys, Cth, and Met; [5]): 282.8 ± 17.1 nmols/g
- Cysteine in liver tissue (Hcy, Cys, Cth, and Met; [5]): 205.2 ± 27.4 nmols/g
- Homocysteine in brain tissue (Hcy, Cys, Cth, and Met; [5]): 1.1 ± 0.1 nmols/g
- Homocysteine in kidney tissue (Hcy, Cys, Cth, and Met; [5]): 6.76 ± 4.42 nmols/g
- Homocysteine in liver tissue (Hcy, Cys, Cth, and Met; [5]): 22.4 ± 3.4 nmols/g
- Methionine in brain tissue (Hcy, Cys, Cth, and Met; [5]): 68.6 ± 4.7 nmols/g
- Methionine in kidney tissue (Hcy, Cys, Cth, and Met; [5]): 53.3 ± 2.9 nmols/g
- Methionine in liver tissue (Hcy, Cys, Cth, and Met; [5]): 25.5 ± 3.4 nmols/g
- bone mineralization (BMD) vs healthy heterozygous controls (I278T mice): indistinguishable
- osteoporosis and body composition (DEXA) (I278T mice): prevented profound osteoporosis and improved body composition
- plasma Cth (Hcy, Cth, Cys; throughout the study): around 50 μM
- plasma Cys (Hcy, Cth, Cys; throughout the study): around 230 μM
- plasma Hcy (Hcy, Cth, Cys; decreased from 230 μM): about 70 μM
- plasma Cth (Hcy, Cth, Cys, Met; −/− I278T on MRD diet): 10 µM
- plasma Hcy (Hcy, Cth, Cys, Met; −/− I278T on MRD diet (41 μM untreated)): 2 µM
- plasma Cth (Hcy, Cth, Cys, Met; −/− I278T on REG diet): 113 µM
- plasma Met (Hcy, Cth, Cys, Met; −/− I278T on REG diet): 66 µM
- plasma Hcy (Hcy, Cth, Cys, Met; −/− I278T on REG diet (356 μM untreated)): 50 µM
- plasma Hcy (Hcy, Cth, Cys, Met; −/− I278T on REG diet (356 μM untreated), listed as OT-58): 51 µM
- plasma Cys (Hcy, Cth, Cys, Met; −/− I278T, MRD diet and/or treatment): normalize plasma levels of Cys
- elimination half-life (T1/2) [2]: 44.5 h
- AUC(0-t) (obs area) ([3]; 2 mg/kg IV): 5942 ± 156 mU-h/μl
- Bioavailability ([3]; 2 mg/kg IV): 100%
- CL (obs area) ([3]; 2 mg/kg IV): 22.4 ± 1.27 mL/day/kg
- MRT (area) ([3]; 2 mg/kg IV): 89.9 ± 2.4 h
- cp0 ([3]; 2 mg/kg IV): 96.5 ± 2.8 mU/μl
- AUC(0-t) (obs area) ([3]; 2 mg/kg SC): 5263 ± 299 mU-h/μl
- Bioavailability ([3]; 2 mg/kg SC): 80.8 ± 4.7%
- MRT (area) ([3]; 2 mg/kg SC): 116.3 ± 2.4 h
- cmax ([3]; 2 mg/kg SC): 40.8 mU/μl and 40.8 ± 2.0 mU/μl
- tmax (obs) ([3]; 2 mg/kg SC): 26.2 ± 2.6 h
- AUC(0-t) (obs area) ([3]; 6 mg/kg SC): 15743 ± 629 mU-h/μl
- Bioavailability ([3]; 6 mg/kg SC): 79.9 ± 3.5%
- MRT (area) ([3]; 6 mg/kg SC): 116.2 ± 5.0 h
- cmax ([3]; 6 mg/kg SC): 114.9 mU/μl and 114.9 ± 7.5 mU/μl
- tmax (obs) ([3]; 6 mg/kg SC): 32.4 ± 2.4 h
- CBS activity after repeated administrations ([3]; 6 SC doses every 72 hours): no attenuation of CBS activity
- tmax ([3]; Monkey/both sexes, SC): 29 h
- bioavailability (F %) after SC administration ([3]; monkeys, both sexes, across SC doses, listed as OT-58): 81%
